# Tests used:
# Format in all cases: in vivo
# [1] = test system: bean aphid (Aphis fabae Scop.); assay: Bean Aphid Foliage Spray Test; design: key to pesticidal activity rating, Aphid: A: excellent control; B: partial control; C: no control; settings: 500 parts per million, 24 hour
# Experimental: Adults and nymphal stages of the bean aphid (Aphis fabae Scop.) reared on potted dwarf nasturtium plants at 65°-70° F. and 50-70 percent relative humidity, constituted the test insects. For testing purposes, the number of aphids per pot was standardized to 100-150 by trimming plants containing excess aphids.
# The test compounds were formulated by diluting the stock suspension with water to give a suspension containing 500 parts of test compound per million parts of final formulation.
# The potted plants (one pot per compound tested) infested with 100-150 aphids, were placed on a revolving turntable and sprayed with 100-110 milliliters of test compound formulation by use of a DeVilbiss spray gun set at 40 psig. air pressure. This application, which lasted 25 seconds, was sufficient to wet the plants to run-off. As a control, 100-110 milliliters of a water-acetone-emulsifier solution containing no test compound were also sprayed on infested plants. After spraying, the pots were placed on their sides on a sheet of white standard mimeograph paper which had been previously ruled to facilitate counting. Temperature and humidity in the test room during the 24 hour holding period were 65°-70° F. and 50-70 percent, respectively. Aphids which fell onto the paper and were unable to remain standing after being uprighted were considered dead. Aphids remaining on the plants were observed closely for movement and those which were unable to move the length of the body upon stimulation by prodding were considered dead. Percent mortality was recorded for various concentration levels.
# (§1) In these tests the pesticidal activity of the compounds against aphid, mite, Southern Armyworm, Bean Beetle and House fly was rated as follows:
# (§2) The LD50 values shown in the above Table II were determined by testing the compositions over an appropriate concentration range obtained by serial dilution of the stock suspension with water. The percent kill was plotted on log-probit graph paper versus parts per million concentration, and the LD50 read from an eye-fitted line drawn through the resultant points.
# [2] = test system: two-spotted mite (Tetranychus urticae Koch); assay: Mite Foliage Spray Test; design: key to pesticidal activity rating, Mite: A: excellent control; B: partial control; C: no control; settings: 500 parts per million, 6 days
# Experimental: Adults and nymphal stages of the two-spotted mite (Tetranychus urticae Koch), reared on Tendergreen bean plants at 80±5 percent relative humidity, were the test organisms. Infested leaves from a stock culture were placed on the primary leaves of two bean plants 6 to 8 inches in height, growing in a 21/2 inch clay pot. 150-200 Mites, a sufficient number for testing, transferred from the excised leaves to the fresh plants in a period of 24 hours. Following the 24 hour transfer period, the excised leaves were removed from the infested plants. The test compounds were formulated by diluting the stock suspension with water to give a suspension containing 500 parts of test compound per million parts of final formulation. The potted plants (one pot per compound) were placed on a revolving turntable and sprayed with 100-110 milliliters of test compound formulation by use of a DeVilbiss spray gun set at 40 psig. air pressure. This application, which lasted 25 seconds, was sufficient to wet the plants to run-off. As a control, 100-110 milliliters of a water solution containing acetone and emulsifier in the same concentrations as the test compound formulation, but containing no test compound, were also sprayed on infested plants. The sprayed plants were held at 80±5 percent relative humidity for 6 days, after which a mortality count of motile forms was made. Microscopic examination for motile forms was made on the leaves of the test plants. Any individual which was capable of locomotion upon prodding was considered living.
# as §1, §2
# [3] = test system: southern armyworm (Prodenia eridania, (Cram.)); assay: Southern Armyworm Leaf Spray Test; design: key to pesticidal activity rating, Armyworm: A: excellent control; B: partial control; C: no control; settings: 500 parts per million, 3 days
# Experimental: Larvae of the southern armyworm (Prodenia eridania, (Cram.)), reared on Tendergreen bean plants at a temperature of 80°±5° F. and a relative humidity of 50±5 percent, constituted the test insects.
# The test compounds were formulated by diluting the stock suspension with water to give a suspension containing 500 parts of test compound per million parts of final formulation. Potted Tendergreen bean plants of standard height and age were placed on a revolving turntable and sprayed with 100-110 milliliters of test compound formulation by use of a DeVilbiss spray gun set at 10 psig air pressure. This application, which lasted 25 seconds, was sufficient to wet plants to run-off. As a control, 100-110 milliliters of a water-acetone-emulsifier solution containing no test compound were also sprayed on infested plants. When dry, the paired leaves were separated and each one was placed in a 9 centimeter Petri dish lined with moistened filter paper. Five randomly selected larvae were introduced into each dish and the dishes were closed. The closed dishes were labeled and held at 80°-85° F. for 3 days. Although the larvae could easily consume the whole leaf within 24 hours, no more food was added. Larvae which were unable to move the length of the body, even upon stimulation by prodding, were considered dead. Percent mortality was recorded for various concentration levels.
# as §1, §2
# [4] = test system: Mexican bean beetle (Epilachna varivestis, Muls.); assay: Mexican Bean Beetle Leaf Spray Test; design: key to pesticidal activity rating, Bean beetle: A: excellent control; B: partial control; C: no control; settings: leaf spray, 500 parts per million, 3 days
# Experimental: Fourth instar larvae of the Mexican bean beetle (Epilachna varivestis, Muls.), reared on Tendergreen bean plants at a temperature of 80°±5° F. and 50±5 percent relative humidity, were the test insects.
# The test compounds were formulated by diluting the stock suspension with water to give a suspension containing 500 parts of test compound per million parts of final formulation. Potted Tendergreen bean plants of standard height and age were placed on a revolving turntable and sprayed with 100-110 milliliters of test compound formulation by use of a DeVilbiss spray gun set at 10 psig air pressure. This application, which lasted 25 seconds, was sufficient to wet plants to run-off. As a control, 100-110 milliliters of a water-acetone-emulsifier solution containing no test compound were also sprayed on infested plants. When dry, the paired leaves were separated and each was placed in a 9 centimeter Petri dish lined with moistened filter paper. Five randomly selected larvae were introduced into each dish, and the dishes were closed. The closed dishes were labeled and held at a temperature of 80°±5° F. for 3 days. Although the larvae could easily consume the leaf within 24 to 48 hours, no more food was added. Larvae which were unable to move the length of the body, even upon stimulation, were considered dead.
# as §1, §2
# [5] = test system: house flies (Musca domestica, L.); assay: Fly Bait Test; design: key to pesticidal activity rating, Housefly: A: excellent control; B: partial control; C: no control; settings: 500 parts per million, 24 hours
# Experimental: Four to 6 day old adult house flies (Musca domestica, L.), reared according to the specifications of the Chemical Specialities Manufacturing Association (Blue Book, McNair-Dorland Co., N.Y. 1954; pages 243-244, 261) under controlled conditions of 80°±5° F. and 50±5 percent relative humidity, were the test insects. The flies were immobilized by anesthetizing with carbon dioxide and twenty five immobilized individuals, males and females, were transferred to a cage consisting of a standard food strainer about 5 inches in diameter which was inverted over a wrapping-paper-covered surface. The test compounds were formulated by diluting the stock suspension with a 10 percent (by weight) sugar solution to give a suspension containing 500 parts of test compound per million parts of final formulation, by weight. Ten milliliters of the test formulation were added to a souffle cup containing a 1-inch square of an absorbent cotton pad. This bait cup was introduced and centered on the blotting paper under the food strainer prior to admitting the anesthetized flies. The caged flies were allowed to feed on the bait for 24 hours, at a temperature of 80°±5° F. and the relative humidity of 50±5 percent.
# as §1, §2
# [6] = Peroral toxicity to mammals (rat); settings: in vivo, po; rat, peroral, Table I; read-out: Rat P.O. LD50
# Experimental: Certain of these compositions were also evaluated to determine their peroral toxicity to mammals. The animal selected for this experiment was the rat. The test results obtained are expressed in terms of the number of milligrams of composition per kilogram of weight of the animal required to achieve a mortality rate of 50 percent (LD50).
SMILES,"pesticidal activity rating, Aphid [1]","pesticidal activity rating, Mite [2]","pesticidal activity rating, Armyworm [3]","pesticidal activity rating, Bean beetle [4]","pesticidal activity rating, Housefly [5]",LD50 [6] [mg/kg]
"CN(SC(F)(F)F)C(=O)ON=C1CSCCS1 [2-O-[(N-METHYL-N-TRIFLUOROMETHANESULFENYL)-CARBAMOYLOXIMINO]-1,4-DITHIANE]",A,A,A,A,A,
"CNC(=O)ON=C1CSC(C)(C)S1 [drawing 6 --NHCH3, reference compound]",A,A,B,A,A,
CC1SCCSC1=NOC(=O)N(C)SC(Cl)(Cl)Cl (centres unmarked),A,A,A,A,A,
CCCC1SCCSC1=NOC(=O)N(C)SC(Cl)(Cl)Cl (centres unmarked),B,C,C,A,A,
"CNC(=O)ON=C1CSCS1 [drawing 5 --NHCH3, reference compound]",A,A,A,A,A,13
"CNC(=O)ON=C1SCCSC1(C)C [drawing 7 --NHCH3, reference compound]",A,A,A,A,A,0.3
"CNC(=O)ON=C1SCCSC1C (centres unmarked) [drawing 11 --NHCH3, reference compound]",A,A,A,A,A,
"CNC(=O)ON=C1C[S+]([O-])CCS1 (centres unmarked) [drawing 10 --NHCH3, reference compound]",C,A,A,A,A,12.3
"CCCC1SCCSC1=NOC(=O)NC (centres unmarked) [drawing 9 --NHCH3, reference compound]",A,C,C,A,A,
CN(SC(Cl)(Cl)Cl)C(=O)ON=C1CSC(C)(C)S1,A,A,C,A,A,
CN(SC(Cl)(Cl)Cl)C(=O)ON=C1SCCSC1(C)C,A,A,A,A,B,7.07
"CN(SC(Cl)(Cl)Cl)C(=O)ON=C1CSCS1 [4-[(N-METHYL-N-TRICHLOROMETHANESULFENYL)-CARBAMOYLOXIMINO]-1,3-DITHIOLANE]",A,A,A,A,A,75
"CN(SC(Cl)(Cl)Cl)C(=O)ON=C1C[S+]([O-])CCS1 (centres unmarked) [2-O-[(N-METHYL-N-TRICHLOROMETHANESULFENYL) CARBAMOYLOXIMINO]-1,4-DITHIANE-4-OXIDE]",A,A,A,A,A,28.3

# From US4111955A, “N-Trihalomethanesulfenyl carbamoyloximino di-sulfur heterocyclic compounds” (priority 1976, dated 1978)
